Measurements taken from patent EP0485961A1, “Oncostatin M for stimulating LDL uptake and LDL receptor expression” (Bristol-Myers Squibb Company, priority 1990, dated 1992).

Experiments:
Assay type in all cases: cell-based, human
[1] = system: HepG2 cells; assay: LDL uptake assay (fluorescent DiI-LDL method); conditions: for LDL UPTAKE % STIMULATION: HepG2
Experimental: LDL uptake in HepG2 cells cultured in 12 well plates (Costar) at 2 X 10^5 per well was assayed by the fluorescent LDL method using a fluorescence microscope and video camera (SIT 66) attached to computer (Laser 25) with JAVA image analysis software (Jandel Scientific, CA) as previously reported (Grove, et al.,). […] Specifically, 2 ug/ml Dil-LDL in serum free media was added to HepG2 monolayers for two hours. The monolayers were washed 3 times to remove free Dil-LDL and fixed with 4% formalin in phosphate-buffered saline. Accumulated fluorescence was measured by quantitating the average intensity of 25 - 50 cells. Three difference fields in each of duplicate or triplicate monolayers were quantitated and averaged. The amount of LDL protein taken up was determined as follows. Unfixed cell monolayers were solubilized with 0.1% sodium dodecyl sulfate, transferred into glass tubes, and the lipids (and Dil) were extracted into chloroform using the Bligh-Dyer extraction procedure. Fluorescence in the chloroform layer was quantitated with a fluorescence spectrophotometer (Perkin-Elmer) and compared with a standard curve generated by extracting Dil from known quantities of Dil-LDL. Coomassie blue kits (Pierce) were used to estimate cell proteins.

[2] = system: diacylglycerol; assay: Lipid analysis: diacylglycerol levels ([3H]-glycerol labelling, TLC); conditions: genistein
Experimental: Lipids from cells radiolabeled with [^32P]-orthophosphate or with (^3H]-glycerol were extracted by a modification of the method of Bligh and Dyer. Extracts, dried under a stream of nitrogen, were solublized with 100 ul of chloroform and spotted on thin-layer chromatography (TLC) plates (Silica Gel 60, Merck). The phospholipids were resolved either with a solvent system designed to separate the inositides (propanol: 4.3 M ammonium hydroxide, 65:35 v/v) or with a system designed to separate phosphatidylcholine and phosphatidylethanolamine (chloroform:methanol:acetic acid:water (50:35:8:1, v/v). Neutral lipids were resolved in a tank containing benzene:ethyl acetate (80:20, v/v). The radiolabeled phospholipids were identified as spots on autoradiographs which comigrated with authentic standards (detected with iodine vapors), were scraped into scintillation vials, and were quantitated in a scintillation counter. Neutral lipid standards (diacylglycerol and triacylglycerol) which were added to the [^3H)- glycerol labeled lipid extracts before chromatography were identified with iodine vapors, scraped into scintillation vials, and analyzed as outlined above.

[3] = system: tyrosine phosphorylation in HepG2 proteins; assay: Phosphotyrosine proteins (antiphosphotyrosine immunoblot)
Experimental: HepG2 cells were plated into six well plates at 4 x 10^5 cells/well. After 48 hours (about 70% confluency), the cells were incubated with Oncostatin M or drugs for the indicated time, rapidly washed once with ice cold PBS, and lysed with 100ul of SDS-sample buffer containing 1 mM mercaptoethanol and 500 uM sodium vanadate. The bufer was rapidly mixed over the entire well before being removed and heated to 100° C for 15 minutes. The samples (25 ul) were separated by SDS-PAGE on 10-20% gradient gels and […] to Hybond C Extra membranes (Amersham). […] Proteins containing phosphotyrosine were detected using an affinity purified rabbit antiphosphotyrosine antibody followed by ['^251]-labeled protein A (ICN).

CCCCCCCCCCCCCC(=O)O[C@@H]1[C@@H](C)[C@@]2(O)[C@@H](C=C(CO)C[C@]3(O)C(=O)C(C)=C[C@@H]23)[C@@H]2C(C)(C)[C@]12OC(C)=O [PMA, phorbol 12-myristate 13-acetate]
LDL uptake ([1]; PMA 10 nM, 4 hours, time dependency similar to Oncostatin M): induced LDL uptake | effect on the inhibition of LDLR expression with genistein ([1]; PMA 50 nM added to genistein-inhibited HepG2 cells): reversed

O=c1c(-c2ccc(O)cc2)coc2cc(O)cc(O)c12 [Genistein]
LDL UPTAKE % STIMULATION [1]: -10% | effect on Oncostatin M-induced elevations in LDLR activity ([1]; genistein): inhibited | effect on Oncostatin M-induced elevations in diacylglycerol [2]: inhibited | effect on Oncostatin M-induced tyrosine phosphorylation ([3]; genistein 30 ug/ml, 30 minutes before Oncostatin M (100 ng/ml, 10 minutes)): mitigated

CC1CNCCN1S(=O)(=O)c1cccc2cnccc12 (stereo not drawn) [H-7]
effect on increase in LDL uptake induced by Oncostatin M ([1]; 10 ug/ml H-7 for 30 min, then 4 hours Oncostatin M (100 ng/ml)): prevented the increases in LDL uptake | effect on increase in LDL uptake induced by PMA ([1]; 10 ug/ml H-7 for 30 min, then 4 hours PMA (10 nM)): prevented the increases in LDL uptake

vanadate
LDL UPTAKE % STIMULATION [1]: 6% | effect on LDLR expression stimulation by Oncostatin M ([1]; vanadate with Oncostatin M): synergistically enhance | TYROSINE PHOSHORYLATION ([3]; HepG2, grades - to + + + + +, legend not given): + + + | effect on tyrosine kinase stimulation by Oncostatin M ([3]; vanadate with Oncostatin M): synergistically enhance
